Measurements as given in US20240101972A1, “METHODS OF […]-[…] PRODUCTION” (priority 2021, published 2024).
Where two headings read alike, the source gives them in different places.

Legend:
[1] = tested on: ecDHFR degron tagged Rep proteins
Protocol: Expi293 cells were seeded 1.4E6 viable cells/mL in Expi293 media the day before transfection. Transfection was performed when the viable cells were between 2E6-3E6 cells/mL. PEI pro transfection reagent (Polyplus), OptiMEM (Gibco) were used. PEI:DNA ratio was 2 and 0.6 μg DNA per million cells was used. Triple transfections were performed with RHM4-1 Rep Cap, Helper and Gaussia luciferase plasmids. Split Rep and Cap plasmids were used in a ratio of 1:4 (Rep:Cap). In some cases split Rep Cap plasmids and TIR1 or CMV-Tet were used in a ratio of 1:3:1 (Rep:Cap:TIR1 or CMV-Tet). 1.5 mM SAHA was added after the addition of DNA-PEI complexes. In some cases next day Shield1 or TMP or Auxin and/or Doxycycline was added. For Doxycycline treated samples another treatment of Dox was performed 24 hr later than first treatment. Cells harvested at 4,8,24 hr post-treatment and 44 hr or 68 hr or 72 hr post-transfection; centrifuged and washed with cold PBS. These cell pellets were kept at −80 freezer. 1 mL of cells harvested 44 hr or 68 hr or 72 hr post-transfection for qPCR.
Frozen harvested cells were thawed and sonicated. 300 μL sonicated cells were treated with Benzonase for 1 hour at 37° C. incubator on a rotator/shaker. Then DNaseI treatment was performed for 15 minutes. Reaction was stopped with stop reagent (0.2% SDS/5 mM EDTA/0.2M NaCl), heated at 95° C. for 10 minutes and centrifuged. […]

[2] = tested on: ecDHFR degron tagged Rep proteins; remark: listed apart in the source
Protocol: Expi293 cells were seeded 1.4E6 viable cells/mL in Expi293 media the day before transfection. Transfection was performed when the viable cells were between 2E6-3E6 cells/mL. PEI pro transfection reagent (Polyplus), OptiMEM (Gibco) were used. PEI:DNA ratio was 2 and 0.6 μg DNA per million cells was used. Triple transfections were performed with RHM4-1 Rep Cap, Helper and Gaussia luciferase plasmids. Split Rep and Cap plasmids were used in a ratio of 1:4 (Rep:Cap). In some cases split Rep Cap plasmids and TIR1 or CMV-Tet were used in a ratio of 1:3:1 (Rep:Cap:TIR1 or CMV-Tet). 1.5 mM SAHA was added after the addition of DNA-PEI complexes. In some cases next day Shield1 or TMP or Auxin and/or Doxycycline was added. For Doxycycline treated samples another treatment of Dox was performed 24 hr later than first treatment. Cells harvested at 4,8,24 hr post-treatment and 44 hr or 68 hr or 72 hr post-transfection; centrifuged and washed with cold PBS. These cell pellets were kept at −80 freezer.
Cell pellets were lysed with RIPA buffer (Pierce) including protease and phosphatase inhibitors and EDTA on ice for 30 minutes. Lysates were centrifuged max speed for 15 minutes and supernatant was transferred to a new Eppendorf tube and used for Western. Protein concentrations were measured with BCA kit (Pierce). 30 lag protein per lane loaded for SDS-PAGE gels. These gels were transferred to either PVDF or Nitrocellulose membrane. Membranes were blocked with blocking buffer (Li-Cor) for 30 minutes at room temperature. Anti-AAV Rep clone 303.9 (ARP, cat #03-61069) purified mouse monoclonal antibody was diluted 500 times in either blocking buffer (Li-Cor) or antibody diluent (Li-Cor). Membranes were incubated overnight in cold room either rocking or non-rocking. Next day membranes were washed 3 times 10 minutes each with 1×TBST buffer (Invitrogen). Goat anti-mouse Alexa Flour 680 secondary antibody was diluted 1000 times in either blocking buffer (Li-Cor) or antibody diluent (Li-Cor). Membranes were incubated at room temperature rocking for 45 minutes. […]

[3] = tested on: FKBP degron tagged Rep proteins; assay: Western blot of FKBP degron tagged Rep proteins; assay type: cell-based, human
Protocol: (§1) PEI pro transfection reagent (Polyplus), OptiMEM (Gibco) were used. […] These cell pellets were kept at −80 freezer.
(§2) Protein concentrations were measured with BCA kit (Pierce). […] Membranes were scanned with Odyssey (Li-Cor).
(§3) As depicted in FIGS. 12A-12D “RHM4-1” and “RHM4-1v2” are the plasmids that express both Rep proteins with no degrons and RHM4-1 Cap. In contrast, “p40Cap plasmid” only expresses RHM4-1 Capsid, while “pAAV2 Rep plasmid” expresses Rep proteins from AAV2. The ITR plasmid used in these studies has Gaussia Luciferase as transgene.

[4] = tested on: FKBP degron tagged Rep proteins; assay: AAV titer (qPCR) with FKBP degron tagged Rep; assay type: cell-based, human
Protocol: as §1
(§4) Frozen harvested cells were thawed and sonicated. […] Then DNaseI treatment was performed for 15 minutes.
as §3

[5] = tested on: Rep with C-terminal FKBP degron; assay: rAAV production from Rep-degron constructs, read out by Huh7 transduction and luciferase; assay type: cell-based, human
Source text: Various constructs were designed for the development of mechanism for controllable Rep accumulation and higher rAAV production. Rep transgene was tagged at N-terminus or C-terminus with a destabilization domain (degron) to confer instability and target the translated Rep protein product to proteasome for degradation. The Rep protein degradation can be reversed by addition of the Shield1 ligand. The degron was modified from a human gene encoding FK506-binding protein 12 (“FKBP12”). It was previously shown that F36V modifications of the protein improves its specificity to Shield1 over FK506 (Clackson et al, PNAS 1998). […] The amino acid sequence of the degron that was used in the present example, referred to herein as “FKBP”, having a F36V and an L107P mutation, was:
Production of rAAV: Recombinant AAV were produced by transfection of human embryonic kidney (HEK293) cells grown in 6-well plates. The cells at 70-90% confluency were transfected with 3 μg of total DNA using jetOPTIMUS® DNA (PolyPlus)transfection reagent. The positive control rAAV produced with LK03 Rep/Cap plasmid were produced via triple transfection method. The plasmids were added in 1:1:1 ratio (1 helper: 1 ITR plasmid: 1 rep/cap plasmids). […]
Transduction of cells: Huh7 cells were transduced with equivalent volume of cell lysate or the cell media containing the AAV vectors. […] Transduction efficiency was assessed in biological duplicates or triplicates. Culture media was replaced the following day, and samples were analyzed for transgene expression 48-72 hours after transduction. For detection of Luciferase expression, Huh7 cells were lysed in passive lysis buffer (Promega) and each biological sample was divided and plated to four wells of 96-well luminescence assay plate. Renilla Luciferase levels were determined using the Renilla Luciferase Assay Kit (Promega) and analyzed in a microplate luminometer (Spectramax) fitted with injectors.
Shield1 was added to selected wells (FIG. 2). […] The Huh7 cells were then lysed and luciferase activity was measured for the detection of transgene activity.

[6] = tested on: Rep with C-terminal degron under the control of TRE3G promoter; assay: AAV titer (qPCR) of Rep with C-terminal degron under TRE3G promoter control; assay type: cell-based
Protocol: as §1, §4
(§5) In this study a Tet response element containing promoter (TRE3G) is cloned in front of the Rep gene as shown at FIG. 18A. This promoter can be activated in the presence of Tet proteins and doxycycline induction. Rep with C-terminal Degron under Tet Response Element promoter control is shown to be functional for AAV production regulation. Large Rep is under the control of Tet promoter and small Rep expression is provided by p19 promoter (Samples 1-5). […] Shield1 can upregulate small Rep expression (Sample 1 vs Sample 2) and large Rep expression (Sample 3 vs Sample 4). A separate plasmid is used for supplying Tet-On 3G transactivator protein where transactivator protein expression is under the control of ubiquitous CMV promoter (Samples 1-4). The amino acid sequence of the transactivator protein is: […]

[7] = molecular target: T1, Rep with C-terminal degron under the control of TRE3G promoter (Homo sapiens, UniProt P62942, F37V); assay: Western blot of Rep with C-terminal degron under TRE3G promoter control; assay type: cell-based
T1 construct: AAV Rep protein (fusion partner); expressed in transfected cells; host or cells: Expi293
Protocol: as §1, §2, §5

[8] = tested on: C-terminal Auxin Inducible Degron containing Rep; assay: AAV titer (qPCR) with Auxin Inducible Degron tagged Rep; assay type: cell-based; conditions: auxin and TIR1 all present (Sample 4), FIG. 14B
Protocol: as §1, §4

[9] = Rep constructs with C-terminal tagged degron, FIG. 15

T1 sequence (P62942 other isoform, or with tags, fused parts or gaps F37V): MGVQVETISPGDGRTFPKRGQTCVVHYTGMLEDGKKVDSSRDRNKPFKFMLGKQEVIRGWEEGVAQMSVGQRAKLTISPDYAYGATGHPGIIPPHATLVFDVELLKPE

COc1cc(Cc2cnc(N)nc2N)cc(OC)c1OC [TMP, Trimethoprim]
AAV titer ([1]; C-terminal ecDHFR degron constructs, FIG. 13C): increases
AAV production ([1]; ecDHFR degron tagged Reps, Sample 8 vs Sample 7 (undetectable without TMP), FIG. 14B): can produce AAV
Small and large Rep expression ([2]; C-ecDegron Rep, 5 μM TMP, FIG. 13B): more
Small and large Rep expression ([2]; C-terminal tagged ecDHFR degron, Samples 7 and 8, FIG. 14A): more
large Rep expression ([2]; N-ecDegron Rep, 5 μM TMP, 24 hour time point, FIG. 13A): higher

CC[C@H](C(=O)N1CCCC[C@H]1C(=O)O[C@H](CCc1ccc(OC)c(OC)c1)c1cccc(OCCN2CCOCC2)c1)c1cc(OC)c(OC)c(OC)c1 [Shield1]
Small and large Rep expression ([3]; C-degron Rep, 4, 8, 24 hour after Shield1 vs untreated, FIG. 12B): higher
large Rep expression ([3]; N-degron Rep, 4, 8, 24 hours after Shield1 vs untreated, FIG. 12A): increases
AAV titer ([4]; N- and C-terminal degron constructs vs untreated controls, FIG. 12C): increases AAV titer
AAV production at different doses [4, 9]: more effective at 500 nM concentration
rAAV production ([5]; Rep with C-terminally linked degron in the presence of both Cap and Shield1, FIG. 6): significantly increased
rAAV production and transduction of the target cells ([5]; Shield1 addition, Rep-only plasmid C-terminal degron, HEK293, FIG. 4): rescued
transduction efficiency ([5]; of the wt Rep/Cap plasmid, Rep-only plasmid C-terminal degron with Shield1, FIG. 4): 15-20%
AAV titer ([6]; codon-modified Rep and small Rep under TRE3G and degron control, treated with Shield1 and Dox together, FIG. 20B): higher
small Rep expression ([7]; Sample 1 vs Sample 2, FIG. 16A): upregulate
large Rep expression ([7]; Sample 3 vs Sample 4 (with doxycycline), FIG. 16A): upregulate
Large and small Rep expression ([7]; Samples 2, 4, 6, 8 vs 1, 3, 5, 7, FIG. 17A): increased
large Rep expression ([7]; Shield1 added on top of doxycycline, Samples 4 and 8, FIG. 18B): increased further

O=C(O)Cc1c[nH]c2ccccc12 [auxin]
AAV production [8]: undetectable

CC[C@H](C(=O)N1CCCC[C@H]1C(=O)O[C@H](CCc1ccc(OC)c(OC)c1)c1ccccc1OCC(=O)NCCCCCCOc1cccc2c1C(=O)N(C1CCC(=O)NC1=O)C2=O)c1cc(OC)c(OC)c(OC)c1 (some centres unmarked) [dTag13]
basal level of the AAV production [4, 9]: did not decrease

C[C@H]1c2cccc(O)c2C(=O)C2=C(O)[C@]3(O)C(=O)C(C(N)=O)=C(O)[C@@H](N(C)C)[C@@H]3[C@@H](O)[C@@H]21 [Doxycycline, doxycycline]
increase of AAV production from the basal levels ([6]; Doxycycline induction, FIG. 16B): ~29 times
